The test system of one series is Typhlodromus pyri. In words: LR50; higher = less toxic. The settings on record: not reported; mortality.
The test system of a further series is Tagia sp. The conditions noted are these: acute; duration: 14 days; mortality.
The test system of a further series is Daphnia magna. The conditions noted are these: chronic/long-term; duration: 21 days; reproduction.
In another series the test system is Anas platyrhynchos. The conditions noted are these: oral, mortality.
The test system of the next series is Apis mellifera. The conditions noted are these: acute; duration: 48 hours; dermal; mortality.
In another series the test system is Canidae. The settings on record: oral, Dog Other, histopathology: nonneoplastic.
The next series has as its system Pimephales promelas. The settings on record: chronic/long-term; duration: 32 days; other.
A further series has as its system Oncorhynchus mykiss. The settings on record: acute; duration: 96 hours; mortality.

`COc1cc(OC)n2nc(S(=O)(=O)Nc3c(Cl)ccc(C)c3Cl)nc2n1` [Metosulam] gave an LR50 with Typhlodromus pyri greater than 40 mg/kg. Moreover, the LC50 was greater than 1000 mg/kg in the series with Tagia sp.; greater than 1400 mg/kg-day in the series with Colinus virginianus (acute, oral, diet, mortality); greater than 1920 mg/kg-day in the series on Anas platyrhynchos (short-term, feed); greater than 29.3 µg/mL with Oncorhynchus mykiss. Besides, the LD50 with Colinus virginianus (acute, oral, mortality) was greater than 2250 mg/kg; in the series on Rattus norvegicus (acute, oral, mortality) it was greater than 5000 mg/kg; with Anas platyrhynchos (acute, unspecified), greater than 2000 mg/kg; in the series on Apis mellifera, greater than 100 µg/piece. Besides, the NOEC came out at 22 mg/kg-day in the series on Colinus virginianus (reproduction developmental), 2.5 mg/L with Daphnia magna and 4.24 mg/L with Pimephales promelas. Further, the NOAEL (commonly the highest tested level that showed no adverse finding) with Rattus norvegicus (chronic, duration: 2 years, histopathology: nonneoplastic) is 5 mg/kg-day; with Canidae (chronic, duration: 1 years), 10 mg/kg-day; in the series on Canidae (short-term, duration: 2 weeks, diet) it was 25 mg/kg-day. The same compound gave an NOEL with Rattus norvegicus (chronic, histopathology: nonneoplastic) of 30 mg/kg-day.

These data come from EPA's ToxValDB 9.5 (doi:10.2903/j.efsa.2010.1592).
